The text below walks through data of patent US20040038201A1, “Diagnostic and therapeutic applications for biomarkers of infection” (Whitehead Institute for Biomedical Research, priority 2002, published 2004).

Assay [1] deals with human macrophages. In kind it is cell-based. Conditions: 24-hour time course; LPS 1 μg/mL, LTA 10 μg/mL, MDP 100 μg/mL, hsps 10 μg/mL.
For assay [2], the system named is human macrophages. Description: Differential (Gram-negative/TLR4-specific) macrophage gene expression after bacterial components or cytokines, HuFL GeneChips. Type of assay: cell-based. The note with it: for expression pattern of the 101 genes differentially regulated by Gram-negative versus Gram-positive bacteria: LPS 1 μg/mL, LTA 10 μg/mL, MDP 100 μg/mL, fMLP 100 nM; for induction of the TLR4-induced core cluster of genes by cytokines: IFNs at 1000 units/mL.

The subject of assay [3] is human macrophages. The assay is described as follows: I-TAC ELISA of macrophage supernatants. Type of assay: cell-based. The note with it: for I-TAC production by macrophages in response to bacterial components: supernatants after 24 hours, LPS 1 μg/mL, MDP 100 μg/mL; for I-TAC production by macrophages in response to IFNs: 100 units/mL IFN.
Assay [4] deals with human macrophages. Description: IL-12 p40 ELISA of macrophage supernatants. Type of assay: cell-based. Conditions: LPS 1 μg/mL, MDP 100 μg/mL.
Assay [5] deals with human macrophages. Description: IL-12 p70 ELISA of macrophage supernatants. The note with it: LPS 1 μg/mL, MDP 100 μg/mL. Type of assay: cell-based.
The test system of another assay is mycobacterial infection. The note with it: supplemental IL-12; cited from earlier work.
Assay [6] concerns M. abscessus infection, M. tuberculosis infection. The note with it: exogenous IL-12 therapy; cited from earlier work.
A further assay concerns the target T1, TLR-4 (Homo sapiens, UniProt O00206+Q9Y6Y9).
T1 construct: endogenous in cells; host or cells: human monocyte-derived macrophages (primary)
The assay is described as follows: TLR-4 antagonist (RSLA) pretreatment, TNF-alpha ELISA of stimulated macrophages. Type of assay: cell-based. Conditions: 1 μg/mL RSLA, 30 minutes pretreatment; 10 μg/mL hsp70. As to the method:
FIG. 9 is a graphical representation showing a specific TLR-4 antagonist inhibits production of TNF-alpha by hsp70. Monocytes were plated at […] in 96-well Primaria plates and matured to macrophages as described. Cells were washed with Hank's Balanced Salt Solution incubated overnight in DMEM, 1% human serum, and pretreated for 30 minutes at 37° C. with 1 μg/mL Rhodobacter sphaeroides lipid A (RSLA). RSLA is a specific antagonist of TLR-4. Cells were then stimulated with 0.1 MOI E. coli sd-4, 1 μg/mL LPS, or 10 μg/mL hsp70 to duplicate, and culture media was collected at 0, 2, 6, and 12 hours. ELISAs were performed using manufacturer's protocols.

For a further assay, the system named is macrophages. In kind it is cell-based, human.
A further assay relates to STAT1. Description: Phosphorylation of macrophage STAT1. Type of assay: cell-based, human.
The subject of a further assay is dendritic cells. The assay is described as follows: I-TAC production by dendritic cells (ELISA). Conditions: 24 hours after exposure to LPS or lipoteichoic acid.

T1 sequence (O00206 24-839): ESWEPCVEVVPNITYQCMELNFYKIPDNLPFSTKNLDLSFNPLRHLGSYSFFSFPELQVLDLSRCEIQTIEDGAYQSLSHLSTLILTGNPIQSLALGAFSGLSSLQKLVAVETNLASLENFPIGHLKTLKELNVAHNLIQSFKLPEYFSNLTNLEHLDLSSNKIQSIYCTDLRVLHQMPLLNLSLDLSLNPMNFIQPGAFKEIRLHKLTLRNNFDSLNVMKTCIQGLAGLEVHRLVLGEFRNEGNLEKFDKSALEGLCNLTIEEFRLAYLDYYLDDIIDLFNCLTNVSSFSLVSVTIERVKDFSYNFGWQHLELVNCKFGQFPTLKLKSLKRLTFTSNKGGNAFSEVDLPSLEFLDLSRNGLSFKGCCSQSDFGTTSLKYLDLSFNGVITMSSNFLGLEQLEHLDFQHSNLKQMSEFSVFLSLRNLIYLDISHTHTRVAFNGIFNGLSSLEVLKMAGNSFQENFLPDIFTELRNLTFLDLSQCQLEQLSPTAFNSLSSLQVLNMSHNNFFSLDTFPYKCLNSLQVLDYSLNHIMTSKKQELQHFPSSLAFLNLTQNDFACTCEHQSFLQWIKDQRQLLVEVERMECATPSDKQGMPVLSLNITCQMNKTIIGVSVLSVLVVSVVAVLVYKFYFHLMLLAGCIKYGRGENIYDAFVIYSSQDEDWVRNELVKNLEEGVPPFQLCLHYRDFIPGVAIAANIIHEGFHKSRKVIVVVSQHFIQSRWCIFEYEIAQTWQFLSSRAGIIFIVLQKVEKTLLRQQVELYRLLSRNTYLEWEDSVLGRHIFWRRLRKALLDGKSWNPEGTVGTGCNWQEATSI
T1 sequence (Q9Y6Y9 17-160 limits assumed): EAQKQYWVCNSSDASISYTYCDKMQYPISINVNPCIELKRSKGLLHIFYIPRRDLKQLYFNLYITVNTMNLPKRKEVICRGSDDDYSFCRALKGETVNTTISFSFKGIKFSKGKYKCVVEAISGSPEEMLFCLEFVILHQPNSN

Consider `CC(=O)N[C@H]1C(O)O[C@H](CO)[C@@H](O)[C@@H]1O[C@H](C)C(=O)N[C@@H](C)C(=O)N[C@H](CCC(=O)O)C(N)=O` (mixture of isomers) [MDP, muramyl dipeptide], for which the “induction of the macrophage activation program (gene expression changes)” value (“induction … (gene expression changes)” below) in the assay with human macrophages [1] was “induced the majority of the activation program”. Besides, in the assay with human macrophages [2], the “induction of the cluster of nine genes specific to Gram-positive bacteria” value is given as “insufficient to induce this small cluster of genes” and the “expression pattern of the 101 genes differentially regulated by Gram-negative versus Gram-positive bacteria” value is “induced gene expression changes similar to the Gram-positive organisms”. For the same molecule, the “I-TAC production by macrophages in response to bacterial components” value (shortened to “I-TAC production … to bacterial components”) in the assay on human macrophages [3] is given as “not”. Besides, the “IL-12 p40 secretion by macrophages” value in the assay on human macrophages [4] is recorded as “elicited”. The “IL-12 p70 production by macrophages in response to bacterial components” value in the assay with human macrophages [5] was “did not”.

Consider IFN-α, for which the “induction of the TLR4-induced core cluster of genes by cytokines” value (from here on “induction … by cytokines”) with human macrophages [2] is given as “sufficient to induce the expression of the TLR4-induced core cluster of genes”. The “I-TAC production by macrophages in response to IFNs” value in the assay with human macrophages [3] is “sufficient to induce I-TAC production”.

As to IFN-γ: IFN-γ from R&D Systems, the “induction … by cytokines” value in the assay with human macrophages [2] is on record as “sufficient to induce the expression of the TLR4-induced core cluster of genes”. Also, the “I-TAC production by macrophages in response to IFNs” value in the assay with human macrophages [3] is on record as “sufficient to induce I-TAC production”.

Consider “IL-12: cytokine incubated with macrophages; exogenous IL-12 therapy in cited studies”, for which the “induction … by cytokines” value in the assay with human macrophages [2] was “failed to induce comparable gene expression changes”. Also, the “clearance of mycobacterial infection in normal mice” value with mycobacterial infection is given as “enhances the ability of normal mice to clear a mycobacterial infection”. Besides, in [6], the “clinical outcome in patients with infections refractory to antibiotics and supplemental IFN-γ” value is listed as “rescued two patients”.

Regarding Rhodobacter sphaeroides lipid A [RSLA], the “production of TNF-alpha by hsp70-stimulated macrophages after antagonist pretreatment” value at TLR-4 is listed as “inhibits”.

In the case of “formyl-methionine-leucine-phenylalanine [formyl-MetLeuPhe]”, the “expression pattern of the 101 genes differentially regulated by Gram-negative versus Gram-positive bacteria” value with human macrophages [2] is given as “failed to induce expression changes that were characteristic of either class of bacteria”.

With “hsp70: Recombinant mycobacterial heat shock protein from StressGen”, the “induction … (gene expression changes)” value with human macrophages [1] is on record as “induced the majority of the activation program”. Further, the “cytokine elicited relative to the endotoxin-equivalent amount of LPS” value in the assay with macrophages (0.06 Eu/mL = 13 pg/mL LPS, 10 μg/mL hsp 70) is reported as 3-6 times.

With lipopolysaccharide [LPS], the “induction … (gene expression changes)” value in the assay with human macrophages [1] is reported as “induced the majority of the activation program”. In addition, in the assay with human macrophages [2], the “gene expression changes compared with whole Gram-negative bacteria” value was “less robust in magnitude and duration”; the “expression pattern of the 101 genes differentially regulated by Gram-negative versus Gram-positive bacteria” value is listed as “recapitulated the expression pattern of the 101 genes”. Besides, in the assay on human macrophages [3] (24 hours after exposure to LPS or lipoteichoic acid), the “maximum level of I-TAC secretion, macrophages” value is given as 2.8 ng/mL. For the same molecule, the “I-TAC production … to bacterial components” value in the assay on human macrophages [3] is “induced”. Also, in the assay on human macrophages [4], the “IL-12 p40 secretion by macrophages” value is “elicited”. Also, the “IL-12 p70 production by macrophages in response to bacterial components” value in the assay on human macrophages [5] is listed as “stimulated p70 production”. Besides, in the assay on macrophages (LPS titration), the “endotoxin levels that did not stimulate production of either cytokine (TNF-alpha, IL-12 p40)” value is listed as “lower than 1.4 Eu/mL” and the “endotoxin required to elicit IL-12 p40 relative to TNF-alpha” value is “Roughly 100 fold”. The “phosphorylation of macrophage STAT1” value in the assay with STAT1 is on record as “observed”. Besides, the “maximum level of I-TAC secretion, dendritic cells” value with dendritic cells worked out at 59 ng/mL.

For lipoteichoic acid [LTA], the “induction … (gene expression changes)” value in the assay with human macrophages [1] is “induced the majority of the activation program”. Further, in the assay on human macrophages [2], the “induction of the cluster of nine genes specific to Gram-positive bacteria” value is given as “insufficient to induce this small cluster of genes” and the “expression pattern of the 101 genes differentially regulated by Gram-negative versus Gram-positive bacteria” value is recorded as “induced gene expression changes similar to the Gram-positive organisms”. Also, the “I-TAC production … to bacterial components” value with human macrophages [3] is listed as “not”.

Regarding monophosphoryl lipid A, in the assay on human macrophages [1], the “induction … (gene expression changes)” value is reported as “failed to induce this set of gene expression changes”.

B1: IL-10: cytokine incubated with macrophages (protein, UniProt P22301 19-178, looked up)
Interleukin-10: SPGQGTQSENSCTHFPGNLPNMLRDLRDAFSRVKTFFQMKDQLDNLLLKESLLEDFKGYLGCQALSEMIQFYLEEVMPQAENQDPDIKAHVNSLGENLKTLRLRLRRCHRFLPCENKSKAVEQVKNAFNKLQEKGIYKAMSEFDIFINYIEAYMTMKIRN
Take B1: in the assay on human macrophages [2], the “induction … by cytokines” value is “failed to induce comparable gene expression changes”.
